pIC50, pKi: −log10 of the molar value.
Key:
[1] = target: Alpha-2A adrenergic receptor (Homo sapiens, UniProt P08913); assay: Selectivity interaction (GPCR panel (PDSP screen)) EUB0000327a ADRA2A
[2] = target: Sodium-dependent dopamine transporter (Homo sapiens, UniProt Q01959); assay: Selectivity interaction (GPCR panel (PDSP screen)) EUB0000327a SLC6A3
[3] = target: Histone-arginine methyltransferase CARM1 (Homo sapiens, UniProt Q86X55); assay: Selectivity interaction (HMT panel) EUB0000194b CARM1
[4] = target: Histone-lysine N-methyltransferase SETDB1 (Homo sapiens, UniProt Q15047); assay: Selectivity interaction (HMT panel) EUB0000194b SETDB1
[5] = target: Histone-lysine N-methyltransferase KMT5B (Homo sapiens, UniProt Q4FZB7); assay: Selectivity interaction (HMT panel) EUB0000194b SUV420H1
[6] = target: T1, Histone-lysine N-methyltransferase SETD7 (Homo sapiens, UniProt Q8WTS6); assay: Selectivity interaction (HMT panel) EUB0000194b SETD7
T1 sequence (Q8WTS6 whole entry): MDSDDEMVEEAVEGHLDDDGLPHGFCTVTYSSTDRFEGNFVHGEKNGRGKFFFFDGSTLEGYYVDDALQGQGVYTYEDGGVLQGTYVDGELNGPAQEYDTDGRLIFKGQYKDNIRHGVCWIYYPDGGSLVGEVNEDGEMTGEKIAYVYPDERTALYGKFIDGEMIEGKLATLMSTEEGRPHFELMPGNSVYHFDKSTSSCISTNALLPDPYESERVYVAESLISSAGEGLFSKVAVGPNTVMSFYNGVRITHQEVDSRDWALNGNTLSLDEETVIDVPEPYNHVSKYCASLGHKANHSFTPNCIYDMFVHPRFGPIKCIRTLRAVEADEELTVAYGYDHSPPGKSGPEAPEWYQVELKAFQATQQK

[7] = target: Histone-lysine N-methyltransferase SUV39H2 (Homo sapiens, UniProt Q9H5I1); assay: Selectivity interaction (HMT panel) EUB0000194b SUV39H2
[8] = target: Protein arginine N-methyltransferase 1 (Homo sapiens, UniProt Q99873); assay: Selectivity interaction (HMT panel) EUB0000194b PRMT1
[9] = target: Protein arginine N-methyltransferase 5 (Homo sapiens, UniProt O14744); assay: Selectivity interaction (HMT panel) EUB0000194b PRMT5
[10] = target: T2, Alpha-2C adrenergic receptor (Homo sapiens, UniProt P18825); assay: Selectivity interaction (Enzyme panel (GPCRS, ion channels, and transporters)) EUB0000194b ADRA2C
T2 sequence (P18825 whole entry): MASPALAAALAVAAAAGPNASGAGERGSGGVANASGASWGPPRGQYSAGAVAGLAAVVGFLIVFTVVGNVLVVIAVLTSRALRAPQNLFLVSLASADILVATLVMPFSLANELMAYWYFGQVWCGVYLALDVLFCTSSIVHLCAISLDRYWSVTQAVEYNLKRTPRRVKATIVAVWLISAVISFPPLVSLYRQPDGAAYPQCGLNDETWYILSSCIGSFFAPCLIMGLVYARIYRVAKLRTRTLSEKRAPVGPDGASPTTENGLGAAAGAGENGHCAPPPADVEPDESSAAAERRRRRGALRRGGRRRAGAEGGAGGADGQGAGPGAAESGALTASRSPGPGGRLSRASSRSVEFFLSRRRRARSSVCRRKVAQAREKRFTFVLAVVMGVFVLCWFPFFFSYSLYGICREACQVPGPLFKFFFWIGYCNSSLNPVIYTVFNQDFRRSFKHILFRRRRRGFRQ

[11] = target: Protein arginine N-methyltransferase 8 (Homo sapiens, UniProt Q9NR22); assay: Selectivity interaction (HMT panel) EUB0000194b PRMT8
[12] = target: Histone-lysine N-methyltransferase EZH2 (Homo sapiens, UniProt Q15910); assay: Selectivity interaction (HMT panel) EUB0000194b EZH2
[13] = target: Histone-lysine N-methyltransferase KMT5C (Homo sapiens, UniProt Q86Y97); assay: Selectivity interaction (HMT panel) EUB0000194b SUV420H2
[14] = target: Histone-lysine N-methyltransferase 2A (Homo sapiens, UniProt Q03164); assay: Selectivity interaction (HMT panel) EUB0000194b MLL
[15] = target: T3, N-lysine methyltransferase KMT5A (Homo sapiens, UniProt Q9NQR1); assay: Selectivity interaction (HMT panel) EUB0000194b SETD8
T3 sequence (Q9NQR1 whole entry): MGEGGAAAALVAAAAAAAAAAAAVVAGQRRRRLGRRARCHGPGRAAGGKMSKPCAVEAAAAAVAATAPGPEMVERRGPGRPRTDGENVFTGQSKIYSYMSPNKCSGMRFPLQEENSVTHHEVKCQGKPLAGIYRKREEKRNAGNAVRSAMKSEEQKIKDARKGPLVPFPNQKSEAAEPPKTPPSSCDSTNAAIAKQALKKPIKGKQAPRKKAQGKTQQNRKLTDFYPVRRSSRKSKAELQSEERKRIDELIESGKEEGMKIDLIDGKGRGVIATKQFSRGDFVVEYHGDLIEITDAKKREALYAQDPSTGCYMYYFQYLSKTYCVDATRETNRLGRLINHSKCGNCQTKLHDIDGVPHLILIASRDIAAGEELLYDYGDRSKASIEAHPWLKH

[16] = target: Protein arginine N-methyltransferase 3 (Homo sapiens, UniProt O60678); assay: Selectivity interaction (HMT panel) EUB0000194b PRMT3
Chain of Protein arginine N-methyltransferase 3 (O60678 whole entry): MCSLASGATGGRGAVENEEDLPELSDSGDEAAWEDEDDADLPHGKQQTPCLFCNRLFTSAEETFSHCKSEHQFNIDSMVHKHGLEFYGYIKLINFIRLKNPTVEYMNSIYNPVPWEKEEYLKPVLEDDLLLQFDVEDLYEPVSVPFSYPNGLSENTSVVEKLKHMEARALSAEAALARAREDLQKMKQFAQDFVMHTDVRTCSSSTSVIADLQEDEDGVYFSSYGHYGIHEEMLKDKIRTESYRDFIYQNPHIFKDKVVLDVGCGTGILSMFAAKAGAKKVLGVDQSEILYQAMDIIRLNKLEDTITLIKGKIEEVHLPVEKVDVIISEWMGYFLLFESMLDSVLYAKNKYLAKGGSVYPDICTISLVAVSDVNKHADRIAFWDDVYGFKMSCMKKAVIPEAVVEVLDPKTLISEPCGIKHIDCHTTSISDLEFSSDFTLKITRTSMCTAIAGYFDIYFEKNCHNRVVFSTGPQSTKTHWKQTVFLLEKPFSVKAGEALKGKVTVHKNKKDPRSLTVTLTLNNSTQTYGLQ

Chain of Histone-lysine N-methyltransferase KMT5C (Q86Y97 whole entry): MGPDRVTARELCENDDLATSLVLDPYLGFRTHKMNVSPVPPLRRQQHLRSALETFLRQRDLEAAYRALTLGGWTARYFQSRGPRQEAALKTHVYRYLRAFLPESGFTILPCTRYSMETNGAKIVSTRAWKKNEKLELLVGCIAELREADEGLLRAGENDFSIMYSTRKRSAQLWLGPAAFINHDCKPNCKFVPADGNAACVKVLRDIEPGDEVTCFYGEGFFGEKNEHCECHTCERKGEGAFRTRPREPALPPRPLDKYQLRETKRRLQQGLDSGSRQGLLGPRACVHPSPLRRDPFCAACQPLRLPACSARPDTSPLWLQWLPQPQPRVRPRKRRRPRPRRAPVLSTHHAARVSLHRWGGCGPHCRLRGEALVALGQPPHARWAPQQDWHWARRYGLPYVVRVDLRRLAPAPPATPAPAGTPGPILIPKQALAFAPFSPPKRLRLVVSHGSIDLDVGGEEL
Chain of Protein arginine N-methyltransferase 5 (O14744 whole entry): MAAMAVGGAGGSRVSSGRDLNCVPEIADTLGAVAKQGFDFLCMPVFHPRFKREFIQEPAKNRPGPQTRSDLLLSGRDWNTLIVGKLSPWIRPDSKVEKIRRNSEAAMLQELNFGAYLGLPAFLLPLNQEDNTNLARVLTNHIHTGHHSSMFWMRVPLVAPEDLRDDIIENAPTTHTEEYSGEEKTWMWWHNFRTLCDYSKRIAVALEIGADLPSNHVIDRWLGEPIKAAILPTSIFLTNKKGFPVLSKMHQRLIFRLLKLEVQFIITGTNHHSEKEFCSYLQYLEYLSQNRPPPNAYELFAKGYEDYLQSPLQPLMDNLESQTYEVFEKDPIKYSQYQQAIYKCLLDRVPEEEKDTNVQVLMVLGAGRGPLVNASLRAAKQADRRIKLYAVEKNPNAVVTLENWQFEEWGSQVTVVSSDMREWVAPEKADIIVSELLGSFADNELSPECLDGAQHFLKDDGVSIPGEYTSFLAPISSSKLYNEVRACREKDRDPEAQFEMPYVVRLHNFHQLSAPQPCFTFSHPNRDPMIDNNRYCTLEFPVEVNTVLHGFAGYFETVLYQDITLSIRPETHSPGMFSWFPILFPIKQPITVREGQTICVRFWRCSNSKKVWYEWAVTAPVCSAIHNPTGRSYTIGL
Chain of Protein arginine N-methyltransferase 8 (Q9NR22 whole entry): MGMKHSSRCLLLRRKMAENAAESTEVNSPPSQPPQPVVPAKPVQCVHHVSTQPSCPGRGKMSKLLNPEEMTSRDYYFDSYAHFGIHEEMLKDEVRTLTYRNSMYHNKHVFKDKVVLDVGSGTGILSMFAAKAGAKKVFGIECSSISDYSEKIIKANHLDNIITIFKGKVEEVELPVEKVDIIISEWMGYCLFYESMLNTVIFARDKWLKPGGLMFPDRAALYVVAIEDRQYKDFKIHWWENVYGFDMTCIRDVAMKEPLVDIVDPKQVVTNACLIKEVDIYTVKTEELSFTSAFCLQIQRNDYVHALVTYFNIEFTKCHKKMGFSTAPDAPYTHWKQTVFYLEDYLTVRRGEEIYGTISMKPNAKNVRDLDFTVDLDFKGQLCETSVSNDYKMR
Chain of Protein arginine N-methyltransferase 1 (Q99873 whole entry): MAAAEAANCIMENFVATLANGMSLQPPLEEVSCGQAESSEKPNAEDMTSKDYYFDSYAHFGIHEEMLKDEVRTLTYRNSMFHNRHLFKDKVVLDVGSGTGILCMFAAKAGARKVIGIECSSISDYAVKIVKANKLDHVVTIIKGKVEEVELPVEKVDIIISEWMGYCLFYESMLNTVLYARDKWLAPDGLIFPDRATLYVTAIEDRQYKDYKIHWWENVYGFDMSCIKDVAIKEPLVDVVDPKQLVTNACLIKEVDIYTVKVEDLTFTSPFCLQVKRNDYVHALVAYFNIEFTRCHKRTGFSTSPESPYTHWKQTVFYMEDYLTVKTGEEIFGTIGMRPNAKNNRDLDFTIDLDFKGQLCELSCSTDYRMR
Chain of Histone-lysine N-methyltransferase EZH2 (Q15910 whole entry): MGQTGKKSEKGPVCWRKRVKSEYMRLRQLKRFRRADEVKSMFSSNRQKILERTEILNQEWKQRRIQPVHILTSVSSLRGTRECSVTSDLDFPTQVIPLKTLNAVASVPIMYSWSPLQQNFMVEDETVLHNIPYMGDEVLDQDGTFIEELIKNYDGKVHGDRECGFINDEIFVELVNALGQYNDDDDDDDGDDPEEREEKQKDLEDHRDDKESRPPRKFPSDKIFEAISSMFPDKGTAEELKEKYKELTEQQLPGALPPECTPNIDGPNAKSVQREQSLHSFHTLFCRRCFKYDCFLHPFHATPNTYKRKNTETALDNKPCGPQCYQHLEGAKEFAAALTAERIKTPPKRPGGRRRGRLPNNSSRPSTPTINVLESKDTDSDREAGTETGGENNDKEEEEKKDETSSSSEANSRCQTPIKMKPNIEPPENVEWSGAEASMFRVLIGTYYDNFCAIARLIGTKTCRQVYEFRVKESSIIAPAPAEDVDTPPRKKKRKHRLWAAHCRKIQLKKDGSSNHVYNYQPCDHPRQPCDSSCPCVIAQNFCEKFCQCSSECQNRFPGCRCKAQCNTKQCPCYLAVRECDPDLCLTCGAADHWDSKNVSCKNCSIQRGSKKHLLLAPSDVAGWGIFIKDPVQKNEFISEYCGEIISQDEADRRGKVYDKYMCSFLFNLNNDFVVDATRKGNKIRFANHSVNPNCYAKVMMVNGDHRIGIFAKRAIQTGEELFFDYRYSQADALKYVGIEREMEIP
Chain of Alpha-2A adrenergic receptor (P08913 whole entry): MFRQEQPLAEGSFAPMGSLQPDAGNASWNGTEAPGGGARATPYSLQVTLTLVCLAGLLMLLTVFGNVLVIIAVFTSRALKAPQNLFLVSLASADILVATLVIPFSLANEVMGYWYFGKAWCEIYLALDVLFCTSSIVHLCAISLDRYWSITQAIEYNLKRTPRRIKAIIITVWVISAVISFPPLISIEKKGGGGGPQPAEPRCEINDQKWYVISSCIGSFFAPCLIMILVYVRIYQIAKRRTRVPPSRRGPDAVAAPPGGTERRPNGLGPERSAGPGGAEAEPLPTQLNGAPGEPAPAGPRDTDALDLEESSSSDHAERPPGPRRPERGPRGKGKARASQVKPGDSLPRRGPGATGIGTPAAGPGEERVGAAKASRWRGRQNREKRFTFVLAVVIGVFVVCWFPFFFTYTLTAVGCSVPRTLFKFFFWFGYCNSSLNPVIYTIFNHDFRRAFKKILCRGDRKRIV
Chain of Histone-lysine N-methyltransferase KMT5B (Q4FZB7 whole entry): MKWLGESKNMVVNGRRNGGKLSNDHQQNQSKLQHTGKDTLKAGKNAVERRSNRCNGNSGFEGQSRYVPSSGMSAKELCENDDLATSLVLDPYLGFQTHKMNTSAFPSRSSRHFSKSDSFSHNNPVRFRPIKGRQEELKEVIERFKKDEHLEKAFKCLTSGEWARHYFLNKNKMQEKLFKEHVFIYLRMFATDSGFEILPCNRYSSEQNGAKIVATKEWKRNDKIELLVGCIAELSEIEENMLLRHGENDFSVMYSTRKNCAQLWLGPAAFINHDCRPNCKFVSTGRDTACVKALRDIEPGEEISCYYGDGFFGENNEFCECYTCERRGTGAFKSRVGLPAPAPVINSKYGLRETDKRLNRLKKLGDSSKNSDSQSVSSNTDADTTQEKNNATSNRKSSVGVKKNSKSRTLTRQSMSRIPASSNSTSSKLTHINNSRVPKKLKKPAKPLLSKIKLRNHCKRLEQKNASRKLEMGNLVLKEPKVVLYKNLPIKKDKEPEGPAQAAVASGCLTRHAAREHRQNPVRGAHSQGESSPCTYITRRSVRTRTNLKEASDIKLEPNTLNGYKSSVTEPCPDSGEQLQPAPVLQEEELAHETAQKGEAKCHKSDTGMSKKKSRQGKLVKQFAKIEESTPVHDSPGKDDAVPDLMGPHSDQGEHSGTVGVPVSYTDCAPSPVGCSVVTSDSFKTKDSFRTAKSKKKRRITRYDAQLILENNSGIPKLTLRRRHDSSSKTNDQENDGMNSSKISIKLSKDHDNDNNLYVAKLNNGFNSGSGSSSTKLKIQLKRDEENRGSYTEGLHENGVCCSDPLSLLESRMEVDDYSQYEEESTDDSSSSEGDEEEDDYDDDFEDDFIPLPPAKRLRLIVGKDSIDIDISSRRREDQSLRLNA
Chain of Histone-lysine N-methyltransferase SUV39H2 (Q9H5I1 whole entry): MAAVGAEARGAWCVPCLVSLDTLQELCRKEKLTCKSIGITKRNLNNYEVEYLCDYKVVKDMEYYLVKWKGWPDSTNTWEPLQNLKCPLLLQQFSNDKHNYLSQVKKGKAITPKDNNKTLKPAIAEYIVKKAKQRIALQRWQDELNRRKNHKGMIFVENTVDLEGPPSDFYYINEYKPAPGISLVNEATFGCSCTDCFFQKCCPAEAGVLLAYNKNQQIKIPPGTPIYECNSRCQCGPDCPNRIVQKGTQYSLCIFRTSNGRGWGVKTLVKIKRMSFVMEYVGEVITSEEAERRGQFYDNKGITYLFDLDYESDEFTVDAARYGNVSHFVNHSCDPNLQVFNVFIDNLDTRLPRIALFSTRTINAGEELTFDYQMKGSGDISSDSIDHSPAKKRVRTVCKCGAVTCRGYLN

Row | pKi [1] | pKi [2] | pIC50 [3] | pIC50 [4] | pIC50 [5] | pIC50 [6] | pIC50 [7] | pIC50 [8] | pIC50 [9] | pKi [10] | pIC50 [11] | pIC50 [12] | pIC50 [13] | pIC50 [14] | pIC50 [15] | pIC50 [16] | SMILES
1 | < 5.00 | < 5.00 | – | – | – | – | – | – | – | – | – | – | – | – | – | – | O=C(NNS(=O)(=O)c1ccccc1)c1cc(-c2ccnnc2)ccc1F [WM-2474]
2 | – | – | < 5.00 | < 5.00 | < 5.00 | < 5.00 | < 5.00 | < 5.00 | < 5.00 | < 5.00 | < 5.00 | < 5.00 | < 5.00 | < 5.00 | < 5.00 | < 5.00 | COc1cc2c(NC3CCN(C(C)C)CC3)nc(N3CCC(F)(F)CC3)nc2cc1OCCCN1CCCC1

Reference: ChEMBL document CHEMBL5212743, “Selectivity Literature for EUbOPEN Chemogenomics Library wave 3” (2023)
